# Data taken from the supplement of paper PMC12463676, “Small-molecule dissolution of stress granules by redox modulation benefits ALS models” (Nature Chemical Biology, 2025).
# Tests used:
# [1] = compound: NC(=O)CCCCC1CCSS1 [lipoamide]; test: thermal stability z-score vs DMSO; higher = more thermally stabilized by treatment; conditions: HeLa, lipoamide concentration 100 µM
# Description: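 Cellular thermal proteome profiling in HeLa cells. Cells were treated with 100 µM lipoamide for 1 h, with or without 1 mM arsenate for a further 1 h, then heated to ten temperatures (37-66.3 °C), and soluble protein was quantified by TMT mass spectrometry relative to 0.1% DMSO controls. The thermal stability score (sum of log2 fold changes minus the abundance score) was transformed to a z-score; mean of n = 3 experiments.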
# [2] = compound: O=[As]([O-])(O)O.[K+] [potassium arsenate]; test: as above; conditions: HeLa; arsenate concentration 1 mM
# Description: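 Cellular thermal proteome profiling in HeLa cells treated with 1 mM arsenate for 1 h (DMSO pretreatment), heated to ten temperatures (37-66.3 °C). Soluble protein was quantified by TMT mass spectrometry relative to DMSO controls; the thermal stability score was transformed to a z-score; mean of n = 3 experiments.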
# [3] = arsenate co-treatment: 1 mM arsenate 1 h
# 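Further: each temperature applied for 3 min, abundance score taken as mean log2 fold change at the two lowest temperatures, z-score obtained by mean subtraction and division by SD.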
# Sequence of UniProt Q13190 (Q13190 whole entry): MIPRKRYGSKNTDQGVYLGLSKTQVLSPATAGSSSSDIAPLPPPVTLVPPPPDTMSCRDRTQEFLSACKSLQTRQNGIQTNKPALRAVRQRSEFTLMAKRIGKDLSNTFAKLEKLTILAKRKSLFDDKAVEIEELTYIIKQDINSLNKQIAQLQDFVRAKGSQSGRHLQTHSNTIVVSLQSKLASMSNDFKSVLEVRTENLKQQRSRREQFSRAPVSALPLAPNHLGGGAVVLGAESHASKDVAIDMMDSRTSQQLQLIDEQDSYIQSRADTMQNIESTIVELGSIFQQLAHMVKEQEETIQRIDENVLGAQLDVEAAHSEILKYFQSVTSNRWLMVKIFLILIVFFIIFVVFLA
# Sequence of UniProt P13010 (P13010 whole entry): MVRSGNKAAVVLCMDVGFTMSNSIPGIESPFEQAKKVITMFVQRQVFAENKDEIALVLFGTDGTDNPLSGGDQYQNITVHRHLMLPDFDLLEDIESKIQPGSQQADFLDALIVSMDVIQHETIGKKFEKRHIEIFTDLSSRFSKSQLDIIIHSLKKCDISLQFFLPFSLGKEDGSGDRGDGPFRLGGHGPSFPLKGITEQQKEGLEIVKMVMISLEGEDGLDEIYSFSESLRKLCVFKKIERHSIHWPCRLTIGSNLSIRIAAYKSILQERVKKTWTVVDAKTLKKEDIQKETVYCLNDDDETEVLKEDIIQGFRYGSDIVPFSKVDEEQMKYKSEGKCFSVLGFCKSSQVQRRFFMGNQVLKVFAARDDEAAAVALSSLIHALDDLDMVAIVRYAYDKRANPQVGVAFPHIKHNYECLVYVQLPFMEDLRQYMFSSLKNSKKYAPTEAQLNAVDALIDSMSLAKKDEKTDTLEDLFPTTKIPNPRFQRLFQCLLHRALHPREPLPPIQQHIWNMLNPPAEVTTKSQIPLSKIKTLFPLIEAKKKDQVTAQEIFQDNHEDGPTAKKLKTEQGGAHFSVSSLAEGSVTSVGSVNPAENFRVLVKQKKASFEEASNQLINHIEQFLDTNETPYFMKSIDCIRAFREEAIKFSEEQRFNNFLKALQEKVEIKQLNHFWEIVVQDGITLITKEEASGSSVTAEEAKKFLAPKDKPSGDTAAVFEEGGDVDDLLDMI
# Sequence of UniProt Q9Y678 (Q9Y678 whole entry): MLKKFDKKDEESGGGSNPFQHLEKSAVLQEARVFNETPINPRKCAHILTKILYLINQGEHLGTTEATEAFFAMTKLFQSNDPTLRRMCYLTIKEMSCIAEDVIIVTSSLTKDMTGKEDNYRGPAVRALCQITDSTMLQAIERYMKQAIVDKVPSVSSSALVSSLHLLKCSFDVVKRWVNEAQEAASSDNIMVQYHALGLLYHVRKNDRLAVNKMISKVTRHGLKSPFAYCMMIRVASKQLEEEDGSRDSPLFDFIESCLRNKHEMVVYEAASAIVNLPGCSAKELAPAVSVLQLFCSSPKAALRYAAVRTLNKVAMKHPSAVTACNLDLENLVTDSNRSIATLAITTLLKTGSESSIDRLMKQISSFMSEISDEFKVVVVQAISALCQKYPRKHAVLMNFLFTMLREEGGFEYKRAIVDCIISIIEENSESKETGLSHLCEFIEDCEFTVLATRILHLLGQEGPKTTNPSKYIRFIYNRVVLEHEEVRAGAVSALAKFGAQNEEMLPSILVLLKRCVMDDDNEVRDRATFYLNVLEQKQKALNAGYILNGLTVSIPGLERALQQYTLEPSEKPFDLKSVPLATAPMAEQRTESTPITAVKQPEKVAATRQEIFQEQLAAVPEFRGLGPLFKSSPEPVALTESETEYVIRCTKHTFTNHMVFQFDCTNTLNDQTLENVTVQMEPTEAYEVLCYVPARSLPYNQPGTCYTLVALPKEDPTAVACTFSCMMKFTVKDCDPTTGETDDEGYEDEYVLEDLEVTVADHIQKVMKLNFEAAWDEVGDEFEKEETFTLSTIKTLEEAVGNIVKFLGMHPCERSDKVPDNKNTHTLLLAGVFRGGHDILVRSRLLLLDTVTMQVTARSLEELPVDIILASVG
# Sequence of UniProt Q53SF7 (Q53SF7 whole entry): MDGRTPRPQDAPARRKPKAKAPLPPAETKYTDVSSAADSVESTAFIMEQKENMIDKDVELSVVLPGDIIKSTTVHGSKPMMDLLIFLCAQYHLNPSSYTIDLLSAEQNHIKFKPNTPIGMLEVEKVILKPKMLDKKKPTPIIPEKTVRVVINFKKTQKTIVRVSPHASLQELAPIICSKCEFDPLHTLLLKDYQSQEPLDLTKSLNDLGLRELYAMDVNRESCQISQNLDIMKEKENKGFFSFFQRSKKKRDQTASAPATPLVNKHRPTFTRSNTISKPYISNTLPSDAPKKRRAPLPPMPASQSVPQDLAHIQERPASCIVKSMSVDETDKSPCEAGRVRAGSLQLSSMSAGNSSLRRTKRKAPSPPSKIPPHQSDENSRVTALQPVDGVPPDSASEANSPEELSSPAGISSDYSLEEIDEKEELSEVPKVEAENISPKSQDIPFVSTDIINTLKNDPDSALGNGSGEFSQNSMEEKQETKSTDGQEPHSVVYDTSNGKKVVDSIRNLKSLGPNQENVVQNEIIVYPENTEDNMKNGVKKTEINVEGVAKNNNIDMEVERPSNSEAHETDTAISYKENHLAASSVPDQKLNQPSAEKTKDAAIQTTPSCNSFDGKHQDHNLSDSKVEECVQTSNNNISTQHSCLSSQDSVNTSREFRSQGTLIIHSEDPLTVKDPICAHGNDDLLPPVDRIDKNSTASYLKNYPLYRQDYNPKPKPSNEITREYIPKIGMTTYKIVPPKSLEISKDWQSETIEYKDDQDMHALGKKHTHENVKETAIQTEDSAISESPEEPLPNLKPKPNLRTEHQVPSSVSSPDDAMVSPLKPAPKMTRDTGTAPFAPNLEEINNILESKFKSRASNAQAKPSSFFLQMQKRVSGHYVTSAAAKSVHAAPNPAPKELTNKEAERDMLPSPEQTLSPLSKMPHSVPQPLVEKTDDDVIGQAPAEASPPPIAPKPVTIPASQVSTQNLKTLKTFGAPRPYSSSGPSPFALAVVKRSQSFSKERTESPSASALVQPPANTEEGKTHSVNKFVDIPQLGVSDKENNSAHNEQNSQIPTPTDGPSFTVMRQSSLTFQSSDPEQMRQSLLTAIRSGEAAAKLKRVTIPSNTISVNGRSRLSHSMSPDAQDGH
# Sequence of UniProt O60493 (O60493 whole entry): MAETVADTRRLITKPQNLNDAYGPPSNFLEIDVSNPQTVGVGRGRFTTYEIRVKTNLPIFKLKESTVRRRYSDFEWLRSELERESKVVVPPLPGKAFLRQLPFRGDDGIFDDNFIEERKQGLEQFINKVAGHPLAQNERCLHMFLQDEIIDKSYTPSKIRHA
# Sequence of UniProt Q9UPQ0 (Q9UPQ0 whole entry): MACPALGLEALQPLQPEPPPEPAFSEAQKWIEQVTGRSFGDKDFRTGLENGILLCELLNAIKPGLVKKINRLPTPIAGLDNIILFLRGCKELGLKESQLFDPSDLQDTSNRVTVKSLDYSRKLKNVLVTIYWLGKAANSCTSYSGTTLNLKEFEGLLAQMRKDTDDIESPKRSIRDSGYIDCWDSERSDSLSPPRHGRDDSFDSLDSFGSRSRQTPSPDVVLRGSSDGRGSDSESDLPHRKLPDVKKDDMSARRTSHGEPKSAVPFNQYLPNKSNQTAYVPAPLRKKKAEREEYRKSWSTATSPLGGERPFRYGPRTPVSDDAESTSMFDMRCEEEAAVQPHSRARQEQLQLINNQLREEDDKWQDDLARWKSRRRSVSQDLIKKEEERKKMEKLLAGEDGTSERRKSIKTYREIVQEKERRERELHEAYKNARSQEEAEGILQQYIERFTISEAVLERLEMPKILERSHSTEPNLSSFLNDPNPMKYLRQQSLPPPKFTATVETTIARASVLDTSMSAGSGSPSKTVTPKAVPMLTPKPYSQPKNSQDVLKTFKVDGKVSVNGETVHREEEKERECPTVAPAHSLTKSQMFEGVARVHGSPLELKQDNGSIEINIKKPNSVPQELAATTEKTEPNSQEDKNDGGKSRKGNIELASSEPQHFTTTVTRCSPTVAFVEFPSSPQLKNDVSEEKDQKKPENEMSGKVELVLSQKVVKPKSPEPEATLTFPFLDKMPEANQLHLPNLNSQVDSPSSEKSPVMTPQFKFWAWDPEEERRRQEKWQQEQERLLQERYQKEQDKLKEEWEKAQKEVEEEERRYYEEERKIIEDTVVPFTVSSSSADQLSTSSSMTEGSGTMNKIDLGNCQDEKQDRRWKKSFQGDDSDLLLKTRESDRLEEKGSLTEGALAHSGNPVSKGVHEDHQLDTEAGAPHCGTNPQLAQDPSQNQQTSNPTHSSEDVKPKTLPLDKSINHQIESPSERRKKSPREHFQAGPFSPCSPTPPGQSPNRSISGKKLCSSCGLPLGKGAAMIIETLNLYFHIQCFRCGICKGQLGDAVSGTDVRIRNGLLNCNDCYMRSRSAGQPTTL
# Sequence of UniProt P62140 (P62140 whole entry): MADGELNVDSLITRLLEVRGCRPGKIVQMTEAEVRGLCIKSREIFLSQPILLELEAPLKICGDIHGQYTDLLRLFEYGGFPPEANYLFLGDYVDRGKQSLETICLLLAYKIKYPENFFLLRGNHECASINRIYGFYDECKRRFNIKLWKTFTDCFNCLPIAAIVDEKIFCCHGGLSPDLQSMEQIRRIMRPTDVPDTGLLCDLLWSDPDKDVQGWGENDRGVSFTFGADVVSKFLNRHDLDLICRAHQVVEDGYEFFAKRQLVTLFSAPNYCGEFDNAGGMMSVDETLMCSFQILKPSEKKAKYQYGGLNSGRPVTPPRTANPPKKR
# Sequence of UniProt P60880 (P60880 whole entry, looked up): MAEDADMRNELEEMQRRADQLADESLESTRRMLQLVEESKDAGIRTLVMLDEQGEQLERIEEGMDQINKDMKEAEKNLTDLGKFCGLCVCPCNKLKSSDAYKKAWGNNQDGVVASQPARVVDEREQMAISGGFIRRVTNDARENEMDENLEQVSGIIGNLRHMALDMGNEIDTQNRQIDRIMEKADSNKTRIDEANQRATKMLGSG
# Sequence of UniProt P30047 (P30047 whole entry): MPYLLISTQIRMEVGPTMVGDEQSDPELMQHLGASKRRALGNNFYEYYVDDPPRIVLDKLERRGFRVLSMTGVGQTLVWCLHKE
Target,"thermal stability z-score [1, 3]",thermal stability z-score ([1]; arsenate co-treatment: none),thermal stability z-score [2]
GOLT1B (UniProt Q9Y3E0),0.0321,0.0691,-0.117
RPS28 (UniProt P62857),0.574,0.243,-0.0195
PPP1CB (UniProt P62140),0.928,-0.00317,0.32
GDI2 (UniProt P50395),0.452,0.275,-0.47
SSU72 (UniProt Q9NP77),-0.256,-0.465,-0.473
NIPA2 (UniProt Q8N8Q9),0.499,0.101,0.36
TMEM214 (UniProt Q6NUQ4),-0.283,-0.131,-0.768
FXR2 (UniProt P51116),0.0778,0.0347,0.783
WASL (UniProt O00401),-0.128,0.327,-1.26
NAGLU (UniProt P54802),0.208,-0.281,0.253
SART3 (UniProt Q15020),-0.326,0.203,-1.04
COBLL1 (UniProt Q53SF7),0.248,0.43,-0.608
THYN1 (UniProt Q9P016),0.476,0.00625,-0.603
ZNHIT6 (UniProt Q9NWK9),1.08,0.924,0.0739
CSRP1 (UniProt P21291),0.858,0.655,0.517
HNRNPL (UniProt P14866),0.204,0.05,-2.57
EVPL (UniProt Q92817),0.263,0.134,0.499
CNPY3 (UniProt Q9BT09),-4.03,-4.98,-0.0267
GALNT6 (UniProt Q8NCL4),-0.515,-0.683,-0.396
KIAA0319L (UniProt Q8IZA0),0.936,0.43,-0.349
LRRC16A (UniProt Q5VZK9),0.276,0.0854,1.26
VPS13D (UniProt Q5THJ4),0.236,0.0716,-0.13
CLU (UniProt P10909),-1.81,-2.08,0.0163
SLC30A5 (UniProt Q8TAD4),-0.202,-0.453,-0.849
SBF2 (UniProt Q86WG5),-0.149,-0.0174,-0.179
XRCC5 (UniProt P13010),-0.555,0.584,-0.403
LYAR (UniProt Q9NX58),-0.425,-0.893,-3.87
WDFY3 (UniProt Q8IZQ1),-0.0589,0.0954,-0.0794

Target,"thermal stability z-score [1, 3]",thermal stability z-score ([1]; arsenate co-treatment: none),thermal stability z-score [2]
COPG1 (UniProt Q9Y678),0.243,-0.177,-0.32
RBM12 (UniProt Q9NTZ6),-0.205,-0.19,-0.506
GXYLT1 (UniProt Q4G148),-0.938,-0.906,0.387
LZIC (UniProt Q8WZA0),0.558,0.781,0.906
ANAPC2 (UniProt Q9UJX6),-0.312,-0.0871,0.093
SNAP25 (UniProt P60880),0.86,0.512,-0.723
REPS2 (UniProt Q8NFH8),0.13,-0.0113,-0.0535
NAV2 (UniProt Q8IVL1),0.0134,-0.0355,-0.055
CHMP5 (UniProt Q9NZZ3),0.869,0.597,-0.246
TRAM1 (UniProt Q15629),-0.499,-1.11,0.968
CTSB (UniProt P07858),-0.289,-0.315,-0.676
MED8 (UniProt Q96G25),0.954,0.843,0.0962
C2CD2 (UniProt Q9Y426),-0.506,0.109,0.234
JUP (UniProt P14923),2.23,2.78,1.07
UHRF1 (UniProt Q96T88),0.0776,0.0619,-0.766
OLR1 (UniProt P78380),-0.828,-0.797,0.938
SNX3 (UniProt O60493),-0.62,-0.231,0.0169
CCDC50 (UniProt Q8IVM0),0.557,0.248,-0.0338
HMGB3 (UniProt O15347),0.138,0.323,0.0296
RABEPK (UniProt Q7Z6M1),0.68,0.305,-0.0506
TLDC1 (UniProt Q6P9B6),-0.455,-0.204,-0.238
GCHFR (UniProt P30047),-0.485,-0.374,0.0269
STX5 (UniProt Q13190),0.00395,-0.95,0.0014
LIMCH1 (UniProt Q9UPQ0),0.0623,0.151,0.542
SEC24D (UniProt O94855),0.087,-0.238,-0.578
MAPK1 (UniProt P28482),0.246,-0.0239,-0.175
XPO4 (UniProt Q9C0E2),-0.237,-0.0735,-0.27
